A word on the IC50: it is the midpoint of a concentration-inhibition curve.

Molecules are shown by their SMILES. Read-outs that look alike come from different tables or passages of the source.

The target in data set [1] is CYP2C19 (Homo sapiens, UniProt P33261). As to the kind of experiment: In vitro inhibition of human cytochrome P450 CYP2C19 (fluorometric, 3-cyano-7-ethoxycoumarin substrate). How it is done:
(§1) In Vitro Inhibition of Human Cytochrome P450 Enzymes
(§2) Solution A: NADPH-Regenerating System
To a glass tube on ice were added sequentially: Water (8 mL) in NADP+ (20 mg), glucose-6-phosphate (20 mg), magnesium chloride hexahydrate (13.3 mg) and glucose-6-phosphate dehydrogenase (60 units).
Solution A was transferred to a 96-well black plate (80 microliter per well), followed by various concentrations of a solution of paroxetine in 20% acetonitrile-water (20 microliter per well). The reaction was initiated by adding 100 microliter of solution B to each well of the 96-well plate. The plate was incubated for 30 minutes at 37° C. in the dark. The reaction was stopped by adding 75 microliter of stop buffer (4:1 acetonitrile-0.5 M Tris base) to each well, and the end point was measured in a fluorometer plate reader at λex=409 nm and λem=460 nm.

Data set [2] concerns the target CYP2D6 (Homo sapiens, UniProt P10635). As to the kind of experiment: In vitro inhibition of human cytochrome P450 CYP2D6 (fluorometric, 3-[2-(N,N diethyl-N-methylamino)ethyl]-7-methoxy-4-methylcoumarin substrate). It is filed as in vitro ADME. The settings on record: for IC50: 40 minutes at 37° C.; for times the amount of compound needed to inhibit CYP2D6 than non-isotopically enriched zamifenacin: ratio versus non-isotopically enriched zamifenacin (IC50 0.33 μM). Here is the method: as §1, §2
The plate was incubated for 40 minutes at 37° C. in the dark.

Setting [3] is: read-out: IC50 for inhibition of CYP2D6.

CYP2C19, sequence (P33261 whole entry): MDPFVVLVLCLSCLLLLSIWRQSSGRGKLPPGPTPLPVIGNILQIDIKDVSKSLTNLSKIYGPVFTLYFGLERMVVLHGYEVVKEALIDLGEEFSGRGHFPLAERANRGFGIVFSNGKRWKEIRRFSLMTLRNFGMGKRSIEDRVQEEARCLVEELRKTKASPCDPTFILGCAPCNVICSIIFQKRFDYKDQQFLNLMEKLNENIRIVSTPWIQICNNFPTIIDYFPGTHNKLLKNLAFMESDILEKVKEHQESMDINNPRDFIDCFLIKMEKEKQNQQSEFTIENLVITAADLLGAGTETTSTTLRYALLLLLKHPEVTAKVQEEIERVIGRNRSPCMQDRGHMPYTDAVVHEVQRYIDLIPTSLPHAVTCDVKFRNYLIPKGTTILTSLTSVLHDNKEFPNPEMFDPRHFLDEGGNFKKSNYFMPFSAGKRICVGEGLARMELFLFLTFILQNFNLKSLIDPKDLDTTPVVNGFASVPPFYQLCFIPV
CYP2D6, sequence (P10635 whole entry): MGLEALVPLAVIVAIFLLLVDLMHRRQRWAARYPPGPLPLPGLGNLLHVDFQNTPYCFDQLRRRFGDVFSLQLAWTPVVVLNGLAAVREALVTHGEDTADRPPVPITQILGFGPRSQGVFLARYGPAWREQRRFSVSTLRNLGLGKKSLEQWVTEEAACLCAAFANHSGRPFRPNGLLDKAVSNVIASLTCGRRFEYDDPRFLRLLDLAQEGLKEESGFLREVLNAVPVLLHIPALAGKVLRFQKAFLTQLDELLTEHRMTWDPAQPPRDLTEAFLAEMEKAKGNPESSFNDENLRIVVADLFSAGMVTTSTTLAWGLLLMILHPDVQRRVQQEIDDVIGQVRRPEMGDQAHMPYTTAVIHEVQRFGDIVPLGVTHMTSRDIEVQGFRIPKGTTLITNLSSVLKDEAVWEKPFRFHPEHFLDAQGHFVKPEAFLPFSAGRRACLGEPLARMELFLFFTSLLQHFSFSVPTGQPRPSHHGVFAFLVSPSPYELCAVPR

As to `[2H]C([2H])(c1ccc2c(c1)OCO2)C([2H])([2H])N1CCCC(OC(c2ccccc2)c2ccccc2)C1` (stereo not shown) [Example 2, d4-3-Benzhydryloxy-1-(2-benzo[1,3]dioxol-5-yl-ethyl)-piperidine], the 50% inhibitory concentration (IC50) in data set [1] turned out to be 4000 nM.

With `[2H]C1([2H])Oc2ccc(CCN3CCCC(OC(c4ccccc4)c4ccccc4)C3)cc2O1` (stereo not shown) [Example 3, d2-3-Benzhydryloxy-1-(2-benzo[1,3]dioxol-5-yl-ethyl)-piperidine], the IC50 turned out to be 5100 nM in data set [1] and 400 nM in data set [2] (setting [3]). The “times the amount of compound needed to inhibit CYP2D6 than non-isotopically enriched zamifenacin” value in data set [2] is given as 1.2 times.

Consider `[2H]C1([2H])Oc2ccc(C([2H])([2H])C([2H])([2H])N3CCCC(OC(c4ccccc4)c4ccccc4)C3)cc2O1` (stereo not shown) [Example 4, d6-3-Benzhydryloxy-1-(2-benzo[1,3]dioxol-5-yl-ethyl)-piperidine], for which the half-maximal inhibitory concentration (IC50) in data set [1] is 5300 nM; in data set [2] (setting [3]), 420 nM. The “times the amount of compound needed to inhibit CYP2D6 than non-isotopically enriched zamifenacin” value in data set [2] is on record as 1.3 times.

Consider `Cc1nc2c([nH]1)c(=O)n(C)c(=O)n2Cc1ccco1` [Furafylline, reference compound], for which, in data set [2] (positive control, read-out: IC50 for inhibition of CYP2D6 (positive control)), the IC50 was 14.5 nM.

`c1ccc(C(OC2CCCN(CCc3ccc4c(c3)OCO4)C2)c2ccccc2)cc1` (stereo not shown) [zamifenacin, 3-benzhydryloxy-1-(2-benzo[1,3]dioxol-5-yl-ethyl)-piperidine, reference compound]: the IC50 in data set [1] came out at 3600 nM; in data set [2] (setting [3]), 330 nM.

Values taken from patent US20090005309A1, “SUBSTITUTED PIPERIDINES” (AUSPEX PHARMACEUTICALS, INC., priority 2007, published 2009).
